Laboratory results as given in US10472336B2, “Modulators of indoleamine 2,3-dioxygenase” (GlaxoSmithKline Intellectual Property (No.2) Limited, priority 2015, dated 2019).
Structures can show the parent of a compound that is named as a salt.

Key:
[1] = target: T1, indoleamine 2, 3-dioxygenase (IDO1) (Homo sapiens, UniProt P14902); experiment: PBMC IDOi assay (kynurenine detection by mass spectrometry); type: cell-based; conditions: IFN-γ and LPS stimulated human PBMC, 2 days
Method: (§1) Compounds of the present invention were tested via high-throughput cellular assays utilizing detection of kynurenine via mass spectrometry and cytotoxicity as end-points. For the mass spectrometry and cytotoxicity assays, human peripheral blood mononuclear cells (PBMC) (PB003F; AllCells®, Alameda, Calif.) were stimulated with human interferon-γ (IFN-γ) (Sigma-Aldrich Corporation, St. Louis, Mo.) and lipopolysaccharide from Salmonella minnesota (LPS) (Invivogen, San Diego, Calif.) to induce the expression of indoleamine 2, 3-dioxygenase (IDO1). Compounds with IDO1 inhibitory properties decreased the amount of kynurenine produced by the cells via the tryptophan catabolic pathway. Cellular toxicity due to the effect of compound treatment was measured using CellTiter-Glo® reagent (CTG) (Promega Corporation, Madison, Wis.), which is based on luminescent detection of ATP, an indicator of metabolically active cells.
(§2) In preparation for the assays, test compounds were serially diluted 3-fold in DMSO from a typical top concentration of 5 mM and plated at 0.5 μL in 384-well, polystyrene, clear bottom, tissue culture treated plates with lids (Greiner Bio-One, Kremsmünster, Austria) to generate 11-point dose response curves. Low control wells (0% kynurenine or 100% cytotoxicity) contained either 0.5 μL of DMSO in the presence of unstimulated (−IFN-γ/−LPS) PBMCs for the mass spectrometry assay or 0.5 μL of DMSO in the absence of cells for the cytotoxicity assay, and high control wells (100% kynurenine or 0% cytotoxicity) contained 0.5 μL of DMSO in the presence of stimulated (+IFN-γ/+LPS) PBMCs for both the mass spectrometry and cytotoxicity assays.
Frozen stocks of PBMCs were washed and recovered in RPMI 1640 medium (Thermo Fisher Scientific, Inc., Waltham, Mass.) supplemented with 10% v/v heat-inactivated fetal bovine serum (FBS) (Thermo Fisher Scientific, Inc., Waltham, Mass.), and 1× penicillin-streptomycin antibiotic solution (Thermo Fisher Scientific, Inc., Waltham, Mass.). The cells were diluted to 1,000,000 cells/mL in the supplemented RPMI 1640 medium. 50 μL of either the cell suspension, for the mass spectrometry assay, or medium alone, for the cytotoxicity assay, were added to the low control wells, on the previously prepared 384-well compound plates, resulting in 50,000 cells/well or 0 cells/well respectively. IFN-γ and LPS were added to the remaining cell suspension at final concentrations of 100 ng/ml and 50 ng/ml respectively, and 50 μL of the stimulated cells were added to all remaining wells on the 384-well compound plates. The plates, with lids, were then placed in a 37° C., 5% CO2 humidified incubator for 2 days.
(§3) Following incubation, the 384-well plates were removed from the incubator and allowed to equilibrate to room temperature for 30 minutes. For the cytotoxicity assay, CellTiter-Glo® was prepared according to the manufacturer's instructions, and 40 μL were added to each plate well. After a twenty minute incubation at room temperature, luminescence was read on an EnVision® Multilabel Reader (PerkinElmer Inc., Waltham, Mass.). For the mass spectrometry assay, 10 μL of supernatant from each well of the compound-treated plates were added to 40 μL of acetonitrile, containing 10 μM of an internal standard for normalization, in 384-well, polypropylene, V-bottom plates (Greiner Bio-One, Kremsmünster, Austria) to extract the organic analytes. Following centrifugation at 2000 rpm for 10 minutes, 10 μL from each well of the acetonitrile extraction plates were added to 90 μL of sterile, distilled H2O in 384-well, polypropylene, V-bottom plates for analysis of kynurenine and the internal standard on the RapidFire 300 (Agilent Technologies, Santa Clara, Calif.) and 4000 QTRAP MS (SCIEX, Framingham, Mass.). MS data were integrated using Agilent Technologies' RapidFire Integrator software, and data were normalized for analysis as a ratio of kynurenine to the internal standard. […]

[2] = target: T1, indoleamine 2, 3-dioxygenase (IDO1); experiment: HeLa IDOi assay (kynurenine detection by mass spectrometry); type: cell-based; parameters: human epithelial HeLa cells (CCL-2; host or cells: HeLa cells stimulated with human IFN-γ; conditions: IFN-γ stimulated human epithelial HeLa cells, 2 days
Method: as §1, with “epithelial HeLa” for “peripheral blood mononuclear”, “(CCL-2; ATCC®, Manassas, Va.)” for “(PBMC) (PB003F; AllCells®, Alameda, Calif.)”, “Mo.)” for “Mo.) and lipopolysaccharide from Salmonella minnesota (LPS) (Invivogen, San Diego, Calif.)”
as §2, with “(−IFN-γ) HeLa cells” for “(−IFN-γ/−LPS) PBMCs”, “(+IFN-γ) HeLa cells” for “(+IFN-γ/+LPS) PBMCs”
Frozen stocks of HeLa cells were washed and recovered in DMEM high glucose medium with HEPES (Thermo Fisher Scientific, Inc., Waltham, Mass.) supplemented with 10% v/v certified fetal bovine serum (FBS) (Thermo Fisher Scientific, Inc., Waltham, Mass.), and 1× penicillin-streptomycin antibiotic solution (Thermo Fisher Scientific, Inc., Waltham, Mass.). The cells were diluted to 100,000 cells/mL in the supplemented DMEM medium. 50 μL of either the cell suspension, for the mass spectrometry assay, or medium alone, for the cytotoxicity assay, were added to the low control wells, on the previously prepared 384-well compound plates, resulting in 5,000 cells/well or 0 cells/well respectively. IFN-γ was added to the remaining cell suspension at a final concentration of 10 nM, and 50 μL of the stimulated cells were added to all remaining wells on the 384-well compound plates. The plates, with lids, were then placed in a 37° C., 5% CO2 humidified incubator for 2 days.
as §3, with “instructions, and 10 μL were” for “instructions, and 40 μL were”

T1 sequence (P14902 whole entry): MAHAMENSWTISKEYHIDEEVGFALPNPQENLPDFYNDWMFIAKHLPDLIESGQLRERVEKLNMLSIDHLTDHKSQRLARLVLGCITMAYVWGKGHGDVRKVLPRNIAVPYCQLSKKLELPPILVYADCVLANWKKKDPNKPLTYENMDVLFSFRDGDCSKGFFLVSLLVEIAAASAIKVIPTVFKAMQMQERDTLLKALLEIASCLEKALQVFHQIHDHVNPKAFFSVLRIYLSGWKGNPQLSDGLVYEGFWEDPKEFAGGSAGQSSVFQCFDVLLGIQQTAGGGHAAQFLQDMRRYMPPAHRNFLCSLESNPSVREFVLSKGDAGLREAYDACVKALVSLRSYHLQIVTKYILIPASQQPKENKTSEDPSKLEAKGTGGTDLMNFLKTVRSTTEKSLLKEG

Which results are given for `CC(C)CN(CC(C)C)c1ccc(C(C)CC(=O)O)cc1Nc1nc2ccccc2o1` (centres unmarked) [Example 1, 3-(3-(benzo[d]oxazol-2-ylamino)-4-(diisobutylamino)phenyl)butanoic acid]?
EC50 [1]: 631 nM; EC50 [2]: 398 nM

Which EC50 [1] does the source give for `COc1nccc(Nc2cc(C(C)CC(=O)O)ccc2N(CC(C)C)CC(C)C)n1` (centres unmarked) [Example 12, 3-(4-(diisobutylamino)-3-((2-methoxypyrimidin-4-yl)amino)phenyl)butanoic acid, 2,2,2-trifluoroacetic acid salt] here?
Its EC50 is 158 nM.

What about the EC50 [2] of the same molecule?
Its EC50 is 126 nM.

Which results are given for `CC(C)CN(CC(C)C)c1ccc(C(C)CC(=O)O)cc1Nc1ccncc1` (centres unmarked) [Example 18, 3-(4-(diisobutylamino)-3-(pyridin-4-ylamino)phenyl)butanoic acid]?
EC50 [1]: 200 nM; EC50 [2]: 316 nM

Which results are given for `CC(C)CN(c1ccc(C(C)CC(=O)O)cc1NC1CCCCC1)C1CCCCC1` (centres unmarked) [Example 19, 3-(4-(cyclohexyl(isobutyl)amino)-3-(cyclohexylamino)phenyl)butanoic acid]?
EC50 [1]: 50.1 nM; EC50 [2]: 100 nM

With `CC(C)CN(c1ccc(C(C)CC(=O)O)cc1NCc1cccs1)C1CCCCC1` (centres unmarked) [Example 20, 3-(4-(cyclohexyl(isobutyl)amino)-3-((thiophen-2-ylmethyl)amino)phenyl)butanoic acid] as the molecule, how does the EC50 [1] read?
The EC50 was 50.1 nM.

And the EC50 [2]?
Its EC50 is 126 nM.

Which EC50 [1] does the source give for `CC(C)CN(c1ccc(C(C)CC(=O)O)cc1NCc1nccs1)C1CCCCC1` (centres unmarked) [Example 21, 3-(4-(cyclohexyl(isobutyl)amino)-3-((thiazol-2-ylmethyl)amino)phenyl)butanoic acid] here?
Its EC50 is 251 nM.

What about the EC50 [2] of the same molecule?
The EC50 was 501 nM.

With `CC(C)CN(c1ccc(C(C)CC(=O)O)cc1NCc1cncs1)C1CCCCC1` (centres unmarked) [Example 22, 3-(4-(cyclohexyl(isobutyl)amino)-3-((thiazol-5-ylmethyl)amino)phenyl)butanoic acid] as the molecule, how does the EC50 [1] read?
The EC50 was 100 nM.

And the EC50 [2]?
The EC50 was 200 nM.

With `CC(C)CN(CC(C)C)c1ccc(C(C)CC(=O)O)cc1Nc1nc(-c2ccccc2)no1` (centres unmarked) [Example 51, 3-(4-(diisobutylamino)-3-((3-phenyl-1,2,4-oxadiazol-5-yl)amino)phenyl)butanoic acid] as the molecule, how does the EC50 [2] read?
Its EC50 is 398 nM.

How did the EC50 [2] turn out when `CC(C)CN(c1ccc(C(C)CC(=O)O)cc1Nc1nc(Br)ns1)C1CCCCC1` (centres unmarked) [Example 52, 3-(3-((3-bromo-1,2,4-thiadiazol-5-yl)amino)-4-(cyclohexyl(isobutyl)amino)phenyl)butanoic acid] was run?
The EC50 was 79.4 nM.

With `CC(C)CN(c1ccc([C@H](C)CC(=O)O)cc1NC1CCCCC1)C1CCCCC1` [Example 64, (R)-3-(4-(cyclohexyl(isobutyl)amino)-3-(cyclohexylamino)phenyl)butanoic acid] as the molecule, how does the EC50 [1] read?
The EC50 was 63.1 nM.

How did the EC50 [1] turn out when `CC(C)CN(c1ccc(C(C)CC(=O)O)cc1Nc1cccc(C(F)(F)F)c1)C1CCCCC1` (centres unmarked) [Example 65, 3-(4-(cyclohexyl(isobutyl)amino)-3-((3-(trifluoromethyl)phenyl)amino)phenyl)butanoic acid] was run?
Its EC50 is 15.8 nM.

For `CC(C)CN(c1ccc(C(C)CC(=O)O)cc1Nc1ccc(C(F)(F)F)cc1)C1CCCCC1` (centres unmarked) [Example 66, 3-(4-(cyclohexyl(isobutyl)amino)-3-((4-(trifluoromethyl)phenyl)amino)phenyl)butanoic acid], which EC50 [1] is on record?
Its EC50 is 1.26 nM.

With `CC(C)CN(c1ccc(C(C)CC(=O)O)cc1Nc1ccc(C#N)cc1)C1CCCCC1` (centres unmarked) [Example 67, 3-(3-((4-cyanophenyl)amino)-4-(cyclohexyl(isobutyl)amino)phenyl)butanoic acid] as the molecule, how does the EC50 [1] read?
The EC50 was 0.794 nM.

For `CC(C)CN(c1ccc(C(C)CC(=O)O)cc1Nc1ccccc1)C1CCCCC1` (centres unmarked) [Example 68, 3-(4-(cyclohexyl(isobutyl)amino)-3-(phenylamino)phenyl)butanoic acid], which EC50 [1] is on record?
The EC50 was 3.16 nM.

Which EC50 [2] does the source give for `CC(C)CN(c1ccc(C(C)CC(=O)O)cc1NCc1ccccc1)C1CCCCC1` (centres unmarked) [Example 69, 3-(3-(Benzylamino)-4-(cyclohexyl(isobutyl)amino)phenyl)butanoic Acid] here?
Its EC50 is 158 nM.

`CC(C)CN(c1ccc(C(C)CC(=O)O)cc1NC1CCOCC1)C1CCCCC1` (centres unmarked) [Example 70, 3-(4-(Cyclohexyl(isobutyl)amino)-3-((tetrahydro-2H-pyran-4-yl)amino)phenyl)butanoic Acid] was tested. Which EC50 [2] did it give?
Its EC50 is 126 nM.

`CC(C)CN(c1ccc(C(C)CC(=O)O)cc1NC1=N[C@H](c2ccccc2)CO1)C1CCCCC1` (stereo partly drawn) [Example 72, 3-(4-(Cyclohexyl(isobutyl)amino)-3-(((R)-4-phenyl-4,5-dihydrooxazol-2-yl)amino)phenyl)butanoic Acid] was tested. Which EC50 [2] did it give?
Its EC50 is 316 nM.

With `CC(C)CN(c1ccc(C(C)CC(=O)O)cc1NC1=N[C@@H](C)CS1)C1CCCCC1` (stereo partly drawn) [Example 73, 3-(4-(cyclohexyl(isobutyl)amino)-3-(((S)-4-methyl-4,5-dihydrothiazol-2-yl)amino)phenyl) butanoic acid] as the molecule, how does the EC50 [2] read?
The EC50 was 398 nM.

`CC(C)CN(c1ccc(C(C)CC(=O)O)cc1NC1=N[C@H](C)CS1)C1CCCCC1` (stereo partly drawn) [Example 74, 3-(4-(Cyclohexyl(isobutyl)amino)-3-(((R)-4-methyl-4,5-dihydrothiazol-2-yl)amino)phenyl)butanoic Acid] was tested. Which EC50 [2] did it give?
The EC50 was 398 nM.
